Measurements published in paper PMC11720106, “Synthesis of Pyrazole-Based Inhibitors of the Bacterial Enzyme N-Succinyl-L,L-2,6-Diaminopimelic Acid Desuccinylase (DapE) as Potential Antibiotics” (International Journal of Molecular Sciences, 2024).
Values joined by “and” are separate entries in the source; they are usually repeats but may differ in a detail not shown here. Equal values may be shown once. Blank lines part the entries; values can stand above or below the compound they belong to.

Columns and labels:
HiDapE [1] = target: T1, HiDapE (Haemophilus influenzae, UniProt P44514); experiment: Discontinuous ninhydrin-based HiDapE inhibition assay; type: biochemical; conditions: 8 nM HiDapE, 2 mM N6-methyl-L,L-SDAP; for IC50: 5–200 μM inhibitor; for inhibition at 100 µM: pH 7.5, 100 μM inhibitor
Experimental: Inhibitory Assay Protocol: A discontinuous inhibition assay was performed utilizing a Techne PCR Thermal Cycler System. The volume of each component was adjusted to fit a total reaction volume of 100 μL. The final potential inhibitor concentration was 100 μM for pyrazoles 7a–7r for screening experiments or 5–200 μM for IC50 experiments. All potential inhibitors were dissolved in neat dimethylsulfoxide (DMSO), and the pre-assay concentrations were adjusted to give a final concentration of 5% DMSO in the assay. The final HiDapE concentration was 8 nM. To a 50 mM HEPES (pH 7.5) buffered solution at 30 °C was added the selected inhibitor followed by HiDapE and incubated for 10 min. N^6-Methyl-L,L-SDAP (2 mM) was added, and the mixture was allowed to react for 10 min, followed by heating at 100 °C for 1 min and then cooled to 0 °C for 1 min. A 2% ninhydrin solution (100 μL) was added, and the mixture was mixed well by rapid pipetting while cooled at 0 °C. The reaction was then heated at 80 °C for 15 min. The absorbance of an 80 μL aliquot was recorded at 570 nm on a BioTek Synergy 2 microplate reader (Biotek Instruments, Winooski, VT, USA). All inhibition assays were performed in triplicate. The data were then exported and analyzed using Prism (version 10.4.1, GraphPad Prism, Boston, MA, USA).

HiDapE [2] = target: T1, HiDapE; experiment: Discontinuous kinetic competition assay with HiDapE; type: biochemical
Experimental: We performed kinetic competition assays to investigate and confirm the binding mode of the pyrazole inhibitors. […] The velocity of the HiDapE enzyme was measured with different concentrations of substrate from 0 to 100 μM, and the plot is shown in Figure 2. After running the AICc statistical analysis to compare noncompetitive and competitive models, it was determined that a competitive binding mode is over 100 times more likely than noncompetitive binding with a 99.2% probability.
Kinetic assay Protocol: A discontinuous kinetic assay was performed utilizing a Techne PCR Thermal Cycler System. The volume of each component was adjusted to fit a total reaction volume of 100 μL. The final potential inhibitor concentration was 0, 20, 40, 60, and 100 μM for pyrazole 7r, where the inhibitor was dissolved in dimethylsulfoxide (DMSO), and the pre-assay concentrations were adjusted to give a final concentration of 5% DMSO in the assay. The in-assay HiDapE concentration was 8 nM. To a 50 mM HEPES (pH 7.5) buffered solution at 30 °C was added the selected inhibitor followed by HiDapE and incubated for 10 min. N^6-Methyl-L,L-SDAP at varied concentrations (0–8 mM) were added, and the mixture was allowed to react for 10 min, followed by heating at 100 °C for 1 min and then cooled to 0 °C for 1 min. A 2% ninhydrin solution (50 μL) was added, and the mixture was mixed well by rapid pipetting while cooled at 0 °C. The reaction was then heated at 80 °C for 15 min. The absorbance of an 80 μL aliquot was recorded at 570 nm on a BioTek Synergy 2 microplate reader. All concentrations were performed in triplicate. The data were then exported and analyzed using Prism using a non-linear regression Michaelis–Menten equation and using AICc statistical analysis to determine which inhibitory binding mode was preferred.

HiDapE [3] = target: T1, HiDapE; experiment: Thermal shift assay (SYPRO Orange); type: binding; conditions: for Tm1 (HiDapE): 200 nM enzyme, 10X dye
Experimental: A thermal shift assay was conducted to observe changes in the thermal stability of DapE under various concentrations of the inhibitor (R)-7q, as summarized in Table 2. These studies were conducted on a Step One Real-Time PCR System^TM (Applied Biosystems, Waltham, MA, USA) and associated QuantStudio software (Version 7) through the fluorescence of the SYPRO Orange dye (Fisher Scientific, Waltham, MA, USA) during protein denaturation. We also used the thermal shift assay results to calculate the Ki value of pyrazole (R)-7q. […] Additionally, we observed a subsequent Tm2 at 78.0 °C involving a destabilization of the enzyme, as shown by the approximate −3 °C negative shift in melt temperature as the inhibitor increases in concentration, indicating at this elevated temperature that the inhibitor is binding to primarily the molten globule state. We have previously observed the second melt temperature with the DapE enzyme.
Thermal Shift Assay Protocol: Thermal shift studies were conducted on a Step One Real-Time PCR System and the associated QuantStudio software. Protein denaturation was measured by detecting the change in fluorescence of the SYPRO Orange dye. HiDapE was used at a final concentration of 200 nM, and SYPRO Orange was used at a final concentration of 10×. The experiment was carried out in 10 μL triplicates in 50 mM HEPES buffer at pH 7.5 in nanopure water, and the inhibitor concentrations were selected based on the half-maximal inhibitory concentration (IC50) values of the inhibitor. Sample solutions were dispensed into a 96-well optical reaction plate (Thermo Fisher Scientific, Kalamazoo, MI, USA), and the plate was sealed with an optical PCR plate sheet (Thermo Fisher Scientific, Kalamazoo, MI, USA). The assay was run according to Bhayani. Melting curves were obtained from the negative derivative and exported from the instrument to Microsoft Excel (Version 2402). The negative first derivatives of the melting curves were differentiated into the […]. Tm values were plotted against the log [concentration], and the Ki values were calculated using a derived Van’t Hoff equation according to Bhayani

T1 sequence (P44514 whole entry): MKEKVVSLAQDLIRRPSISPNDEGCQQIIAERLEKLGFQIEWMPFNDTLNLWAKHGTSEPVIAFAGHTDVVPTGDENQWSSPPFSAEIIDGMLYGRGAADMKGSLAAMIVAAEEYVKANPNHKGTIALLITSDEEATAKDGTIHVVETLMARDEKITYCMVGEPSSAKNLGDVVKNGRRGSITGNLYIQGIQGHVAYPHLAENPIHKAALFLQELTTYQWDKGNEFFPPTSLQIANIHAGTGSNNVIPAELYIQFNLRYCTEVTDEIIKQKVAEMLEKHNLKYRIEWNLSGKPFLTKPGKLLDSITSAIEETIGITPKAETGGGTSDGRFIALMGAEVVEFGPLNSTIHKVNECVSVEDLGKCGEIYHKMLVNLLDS

SMILES: Cc1cc(SCC(=O)Nc2nccs2)n(-c2ccccc2)n1 [Compound 7a, 2-((3-Methyl-1-phenyl-1H-pyrazol-5-yl)thio)-N-(thiazol-2-yl)acetamide]
- IC50 (HiDapE [1]; pH 7.5): 22.4 µM
- inhibition at 100 µM (HiDapE [1]; triplicate): 95.2 ± 0.6%

SMILES: Cc1cc(SCC(=O)Nc2ccccc2)n(-c2ccccc2)n1 [Compound 7c, 2-((3-Methyl-1-phenyl-1H-pyrazol-5-yl)thio)-N-phenylacetamide]
- inhibition at 100 µM (HiDapE [1]; triplicate): 80.5 ± 3%

SMILES: Cc1cc(SCC(=O)Nc2ccccn2)n(-c2ccccc2)n1 [Compound 7d, 2-((3-Methyl-1-phenyl-1H-pyrazol-5-yl)thio)-N-(pyridine-2-yl)acetamide]
- IC50 (HiDapE [1]; pH 7.5): 17.9 µM
- inhibition at 100 µM (HiDapE [1]; triplicate): 85.7 ± 1.2%

SMILES: Cc1cc(SCC(=O)Nc2ccc(Cl)cn2)n(-c2ccccc2)n1 [Compound 7f, N-(5-Chloropyridin-2-yl)-2-((3-methyl-1-phenyl-1H-pyrazol-5-yl)thio)acetamide]
- inhibition at 100 µM (HiDapE [1]; triplicate): 54.2 ± 0.3%

SMILES: Cc1cc(SCC(=O)Nc2nc3ccccc3[nH]2)n(-c2ccccc2)n1 [Compound 7k, N-(1H-Benzo[d]imidazol-2-yl)-2-((3-methyl-1-phenyl-1H-pyrazol-5-yl)thio)acetamide]
- inhibition at 100 µM (HiDapE [1]; triplicate): 36.9 ± 2.7%

SMILES: Cc1cc(SC(C)C(=O)Nc2nccs2)n(-c2ccccc2)n1 (centres unmarked) [Compound 7l, 2-((3-Methyl-1-phenyl-1H-pyrazol-5-yl)thio)-N-(thiazol-2-yl)propanamide]
- inhibition at 100 µM (HiDapE [1]; triplicate): 28 ± 1.8%

SMILES: Cc1cc(SC(C)C(=O)NCc2ccccc2)n(-c2ccccc2)n1 (centres unmarked) [Compound 7o, N-Benzyl-2-((3-methyl-1-phenyl-1H-pyrazol-5-yl)thio)propanamide]
- inhibition at 100 µM (HiDapE [1]; triplicate): 63.2 ± 1.8%

More lines, now with the values ahead:

- inhibition at 100 µM (HiDapE [1]; triplicate): 20.3 ± 3.6%
SMILES: Cc1cc(SCC(=O)Nc2ccon2)n(-c2ccccc2)n1 [Compound 7b, N-(Isoxazol-3-yl)-2-((3-methyl-1-phenyl-1H-pyrazol-5-yl)thio)acetamide]

- inhibition at 100 µM (HiDapE [1]; triplicate): 64.3 ± 5.5%
SMILES: Cc1ccc(NC(=O)CSc2cc(C)nn2-c2ccccc2)nc1 [Compound 7e, 2-((3-Methyl-1-phenyl-1H-pyrazol-5-yl)thio)-N-(5-methylpyridin-2-yl)acetamide]

- inhibition at 100 µM (HiDapE [1]; triplicate): 32.4 ± 3.4%
SMILES: Cc1cc(SCC(=O)Nc2ncccn2)n(-c2ccccc2)n1 [Compound 7g, 2-((3-Methyl-1-phenyl-1H-pyrazol-5-yl)thio)-N-(pyrimidin-2-yl)acetamide]

- IC50 (HiDapE [1]; pH 7.5): 20.2 µM
- inhibition at 100 µM (HiDapE [1]; triplicate): 96.2%
SMILES: Cc1cc(SCC(=O)Nc2cnccn2)n(-c2ccccc2)n1 [Compound 7h, 2-((3-Methyl-1-phenyl-1H-pyrazol-5-yl)thio)-N-(pyrazin-2-yl)acetamide]

- inhibition at 100 µM (HiDapE [1]; triplicate): 47.4 ± 7.2%
SMILES: CCN(CC)C(=O)CSc1cc(C)nn1-c1ccccc1 [Compound 7j, N,N-Diethyl-2-((3-methyl-1-phenyl-1H-pyrazol-5-yl)thio)acetamide]

- inhibition at 100 µM (HiDapE [1]; triplicate): 19.5 ± 0.1%
SMILES: Cc1cc(SC(C)C(=O)Nc2ccon2)n(-c2ccccc2)n1 (centres unmarked) [Compound 7m, N-(Isoxazol-3-yl)-2-((3-methyl-1-phenyl-1H-pyrazol-5-yl)thio)propanamide]

- inhibition at 100 µM (HiDapE [1]; triplicate): 79.4 ± 3.6%
SMILES: Cc1cc(SC(C)C(=O)Nc2ccccc2)n(-c2ccccc2)n1 (centres unmarked) [Compound 7n, 2-((3-Methyl-1-phenyl-1H-pyrazol-5-yl)thio)-N-phenylpropanamide]

- IC50 (HiDapE [1]; pH 7.5): 35.6 µM and 35.7 µM
- inhibition at 100 µM (HiDapE [1]; triplicate): 97.4 ± 2%
SMILES: Cc1cc(SC(C)C(=O)Nc2ccccn2)n(-c2ccccc2)n1 (centres unmarked) [Compound 7p, 2-((3-Methyl-1-phenyl-1H-pyrazol-5-yl)thio)-N-(pyridine-2-yl)propanamide]

- % Inhibition at 100 μM (HiDapE [1]; 100 μM inhibitor, pH 7.5, triplicate): 99.1 ± 1.6%
- IC50 (HiDapE [1]; pH 7.5): 18.8 µM
- inhibition at 100 µM (HiDapE [1]; triplicate): 99%
- binding mode (mode of inhibition) (HiDapE [2]; AICc comparison of competitive and noncompetitive models): competitive
- likelihood of competitive over noncompetitive binding (HiDapE [2]; AICc statistical analysis): over 100 times
- probability of competitive binding mode (HiDapE [2]; AICc statistical analysis): 99.2%
- Tm1 (HiDapE) (HiDapE [3]; 1 μM inhibitor): 50.8 +/− 0.6 °C
- Tm1 (HiDapE) (HiDapE [3]; 5 μM inhibitor): 50.1 +/− 0.1 °C
- Tm1 (HiDapE) (HiDapE [3]; 10 μM inhibitor): 50.2 +/− 0.1 °C
- Tm1 (HiDapE) (HiDapE [3]; 20 μM inhibitor): 52.7 +/− 0.3 °C
- Tm1 (HiDapE) (HiDapE [3]; 40 μM inhibitor): 55.7 +/− 0.3 °C
- Tm1 (HiDapE) (HiDapE [3]; 60 μM inhibitor): 60.6 +/− 0.7 °C
- Tm1 (HiDapE) (HiDapE [3]; 80 μM inhibitor): 61.3 +/− 0.5 °C
- Tm1 (HiDapE) (HiDapE [3]; 100 μM inhibitor): 63.1 +/− 0.2 °C
- Tm (HiDapE [3]; as stated in the abstract): 50.2 °C
- Ki (HiDapE [3]; calculated from positive melt temperature shift at Tm1, Van't Hoff equation): 17.3 ± 2.8 µM
- shift in melt temperature at Tm2 (HiDapE [3]; negative shift as the inhibitor increases in concentration, Tm2 78.0 °C): ~−3 °C
- shift in melt temperature at Tm1 (HiDapE [3]; positive shift as the inhibitor increases in concentration, Tm1 50.2 °C): +13 °C
SMILES: Cc1cc(S[C@H](C)C(=O)Nc2ccccn2)n(-c2ccccc2)n1 [Compound 7q, (R)-2-((3-Methyl-1-phenyl-1H-pyrazol-5-yl)thio)-N-(pyridine-2-yl)propanamide]

- inhibition at 100 µM (HiDapE [1]; triplicate): 14.6 ± 9.5%
SMILES: Cc1cc(S[C@@H](C)C(=O)Nc2ccccn2)n(-c2ccccc2)n1 [Compound 7r, (S)-2-((3-Methyl-1-phenyl-1H-pyrazol-5-yl)thio)-N-(pyridine-2-yl)propanamide]
